This is an account of results in paper PMC11844072, “Novel 5,6-dichlorobenzimidazole derivatives as dual BRAFWT and BRAFV600E inhibitors: design, synthesis, anti-cancer activity and molecular dynamics simulations” (BMC Chemistry, 2025).

Holding throughout (assay): NCI 60 single concentration growth inhibition
Holding throughout (format): cell-based, human

One experiment has as its system K-562. Conditions: for inhibition at 10 µM: Homo sapiens, K562, K-562, Leukemia, read-out: GI%; for GI%: K-562, Leukemia, 10 μM. The method in brief: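 One-concentration growth inhibition used 10 µM over 48 h in RPMI 1640/5% FBS, with sulforhodamine B protein staining as the end point. Percent growth is expressed relative to untreated control cells.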
The subject of the next experiment is COLO 205. Conditions: COLO 205, Colon cancer; for inhibition at 10 µM: Homo sapiens, read-out: GI%; for GI%: 10 μM. The method in brief: (§1)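 Single-dose screen: cells in RPMI 1640 with 5% FBS and 2 mM L-glutamine, pre-grown 24 h, then exposed to 10 µM compound for 48 h at 37 °C. Protein was measured by TCA fixation and sulforhodamine B staining at 515 nm, and percent growth was taken against time-zero and untreated wells.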

In the next experiment the test system is TK-10. Conditions: TK-10, Renal cancer; for inhibition at 10 µM: Homo sapiens, read-out: GI%; for GI%: 10 μM. The method in brief:
as §1

A further experiment deals with HOP-92. Conditions: HOP-92, Non-small cell lung cancer; for inhibition at 10 µM: Homo sapiens, read-out: GI%; for GI%: 10 μM. The method in brief:
as §1

The next experiment has as its system NCI-H460. Conditions: NCI-H460, Non-small cell lung cancer; for inhibition at 10 µM: Homo sapiens, read-out: GI%; for GI%: 10 μM. The method in brief:
as §1

A further experiment deals with OVCAR-4. Conditions: OVCAR-4, Ovarian cancer; for inhibition at 10 µM: Homo sapiens, read-out: GI%; for GI%: 10 μM. The method in brief: as §1
Another experiment has as its system SNB-19. Conditions: SNB-19, CNS cancer; for inhibition at 10 µM: Homo sapiens, read-out: GI%; for GI%: 10 μM. The method in brief:
as §1

In the next experiment the test system is U251. Conditions: for inhibition at 10 µM: Homo sapiens, U-251, U251, CNS cancer, read-out: GI%; for GI%: U251, CNS cancer, 10 μM. The method in brief:
as §1

In a further experiment the test system is UO-31. Conditions: UO-31, Renal cancer, 10 μM. The method in brief: as §1
The next experiment has as its system MALME-3M. Conditions: Melanoma, 10 μM. The method in brief: as §1
The next experiment concerns IGROV1. Conditions: IGROV1, Ovarian cancer, 10 μM. The method in brief: as §1
The next experiment concerns SNB-75. Conditions: SNB-75, CNS cancer, 10 μM. The method in brief: as §1
Another experiment concerns NCI-H322M. Conditions: Non-small cell lung cancer, 10 μM. The method in brief: as §1

Take `COc1ccc(-c2nc3cc(Cl)c(Cl)cc3n2CC(=O)NN=Cc2ccc(O)cc2)cc1` [Compound 10b, 2-(5,6-Dichloro-2-(4-methoxyphenyl)-1H-benzo[d]imidazol-1-yl)-N'-(4-hydroxybenzylidene)acetohydrazide]: the inhibition at 10 µM with K-562 was found to be 47.5%; in the experiment with COLO 205, 9.38%; with TK-10, 13.9%; with HOP-92, 40%; in the experiment on NCI-H460, 49.7%; in the experiment with OVCAR-4 it was 52.8%. In addition, the inhibition at 10 µM is 39% in the experiment with SNB-19 and 42.8% in the experiment on U251.

With `COC(=O)COc1cccc(C=NNC(=O)Cn2c(-c3ccc(OC)cc3)nc3cc(Cl)c(Cl)cc32)c1` [Compound 10g, Methyl-2-(3-((2-(2-(5,6-dichloro-2-(4-methoxyphenyl)-1H-benzo[d]imidazol-1-yl)acetyl)hydrazono)methyl)phenoxy)acetate], the inhibition at 10 µM with K-562 was 21.3%; with COLO 205, under 5%; in the experiment on TK-10, under 5%; with HOP-92, 5.5%; in the experiment with NCI-H460 it was under 5%; with OVCAR-4, under 5%. The inhibition at 10 µM in the experiment with SNB-19 and in the experiment on U251 was under 5% each time.

As for `COc1ccc(C=NNC(=O)Cn2c(-c3ccc(OC)cc3)nc3cc(Cl)c(Cl)cc32)cc1` [Compound 10d, 2-(5,6-Dichloro-2-(4-methoxyphenyl)-1H-benzo[d]imidazol-1-yl)-N'-(4-methoxybenzylidene)acetohydrazide], the inhibition at 10 µM with K-562 was 58.7%; with COLO 205 it was 42.7%; in the experiment on TK-10, 34.9%; with HOP-92 it was 10.9%; in the experiment on NCI-H460 it was 47.2%; in the experiment on OVCAR-4, 65%. The inhibition at 10 µM amounted to 50.5% with SNB-19 and 38.6% with U251.

Regarding `COc1ccc(-c2nc3cc(Cl)c(Cl)cc3n2CC(=O)NN=Cc2cccc(OCC(=O)O)c2)cc1` [Compound 10e, 2-(3-((2-(2-(5,6-Dichloro-2-(4-methoxyphenyl)-1H-benzo[d]imidazol-1-yl)acetyl)hydrazono)methyl)phenoxy)acetic acid], the GI% is listed as 10.58% in the experiment on UO-31; “– (GI% < 5%)” in the experiment on MALME-3M; “– (GI% < 5%)” with IGROV1; “– (GI% < 5%)” with SNB-75; “– (GI% < 5%)” in the experiment with NCI-H322M. In addition, the inhibition at 10 µM with K-562, in the experiment on COLO 205, in the experiment on TK-10, in the experiment on HOP-92, in the experiment with NCI-H460 and in the experiment on OVCAR-4 was under 5% each time. In addition, the inhibition at 10 µM in the experiment with SNB-19 and in the experiment on U251 was under 5% throughout.

With `COc1ccc(-c2nc3cc(Cl)c(Cl)cc3n2CC(=O)NN=Cc2ccc(OCC(=O)O)cc2)cc1` [Compound 10f, 2-(4-((2-(2-(5,6-Dichloro-2-(4-methoxyphenyl)-1H-benzo[d]imidazol-1-yl)acetyl)hydrazono)methyl)phenoxy)acetic acid], the inhibition at 10 µM in the experiment with K-562, with COLO 205, with TK-10, in the experiment with HOP-92, with NCI-H460 and in the experiment on OVCAR-4 was under 5% each time. Moreover, the inhibition at 10 µM in the experiment on SNB-19 and in the experiment on U251 was under 5% throughout.

Turning to `CCOC(=O)C(C)Oc1ccc(C=NNC(=O)Cn2c(-c3ccc(OC)cc3)nc3cc(Cl)c(Cl)cc32)cc1` (stereo not shown) [Compound 10j, Ethyl-2-(4-((2-(2-(5,6-dichloro-2-(4-methoxyphenyl)-1H-benzo[d]imidazol-1-yl)acetyl) hydrazono)methyl)phenoxy)propanoate], the GI% was 25.57% with UO-31; “– (GI% < 5%)” in the experiment with MALME-3M; 25.42% with IGROV1; 5.72% in the experiment with SNB-75; “– (GI% < 5%)” with NCI-H322M. For the same molecule, the inhibition at 10 µM was 41.3% in the experiment with K-562; 8.58% with COLO 205; under 5% with TK-10; 15.2% in the experiment on HOP-92; under 5% in the experiment on NCI-H460; 9.77% with OVCAR-4. For the same molecule, the inhibition at 10 µM was determined as 11.2% with SNB-19 and 5.26% in the experiment with U251.

For `COc1ccc(-c2nc3cc(Cl)c(Cl)cc3n2CC(=O)NN=Cc2ccc(O)c(OC)c2)cc1` [Compound 10l, 2-(5,6-Dichloro-2-(4-methoxyphenyl)-1H-benzo[d]imidazol-1-yl)-N'-(4-hydroxy-3-methoxybenzylidene)acetohydrazide], the inhibition at 10 µM in the experiment on K-562 is 58.1%; in the experiment on COLO 205 it was under 5%; with TK-10 it was 16.2%; in the experiment with HOP-92, 40.1%; in the experiment on NCI-H460, 31%; in the experiment with OVCAR-4, 52.9%. In addition, the inhibition at 10 µM worked out at 37.3% with SNB-19 and 25.8% with U251.

Take `COc1ccc(-c2nc3cc(Cl)c(Cl)cc3n2CC(=O)NN=Cc2cccc(O)c2)cc1` [Compound 10a, 2-(5,6-Dichloro-2-(4-methoxyphenyl)-1H-benzo[d]imidazol-1-yl)-N'-(3-hydroxybenzylidene)acetohydrazide]: the inhibition at 10 µM in the experiment with K-562 stood at 66%; in the experiment with COLO 205, 46%; in the experiment on TK-10, 37.2%; in the experiment on HOP-92, 23.8%; in the experiment with NCI-H460 it was 46.8%; in the experiment on OVCAR-4, 68.1%. Also, the inhibition at 10 µM worked out at 50.4% in the experiment with SNB-19 and 39.3% in the experiment with U251.

Turning to “2-(5-((2-(2-(5,6-Dichloro-2-(4-methoxyphenyl)-1H-benzo[d]imidazol-1-yl)acetyl)hydrazono)methyl)-2-methoxyphenoxy)acetic acid [Compound 10n]”, the GI% with UO-31 is recorded as 13.00%; in the experiment with MALME-3M it was “– (GI% < 5%)”; with K-562, “– (GI% < 5%)”; in the experiment on COLO 205, “– (GI% < 5%)”; with TK-10, “– (GI% < 5%)”; in the experiment with IGROV1, “– (GI% < 5%)”. Moreover, the GI% result in the experiment on SNB-75, in the experiment with NCI-H322M, in the experiment on HOP-92, with NCI-H460, with OVCAR-4 and in the experiment with SNB-19 was “– (GI% < 5%)” in each case. Besides, the GI% result in the experiment on U251 is “– (GI% < 5%)”.

As for “3-(4-((2-(2-(5,6-Dichloro-2-(4-methoxyphenyl)-1H-benzo[d]imidazol-1-yl)acetyl)hydrazono)methyl)phenoxy)propanoic acid [Compound 10i]”, the GI% with UO-31 was 25.68%; with MALME-3M, “– (GI% < 5%)”; in the experiment on K-562, 10.25%; in the experiment on COLO 205 it was “– (GI% < 5%)”; in the experiment with TK-10, “– (GI% < 5%)”; in the experiment with IGROV1, “– (GI% < 5%)”. Further, the GI% in the experiment with SNB-75 was 8.33%; in the experiment on NCI-H322M, “– (GI% < 5%)”; in the experiment with HOP-92 it was 6.61%; in the experiment on NCI-H460, “– (GI% < 5%)”; in the experiment with OVCAR-4, “– (GI% < 5%)”; with SNB-19, 5.79%. In the experiment on U251, this molecule came in with a GI% of 7.22%.

Regarding “2-(4-((2-(2-(5,6-Dichloro-2-(4-methoxyphenyl)-1H-benzo[d]imidazol-1-yl)acetyl)hydrazono)methyl) -2-methoxyphenoxy)acetic acid [Compound 10m]”, the GI% in the experiment on UO-31 is listed as 8.63%; in the experiment on MALME-3M, “– (GI% < 5%)”; with K-562, “– (GI% < 5%)”; in the experiment with COLO 205, “– (GI% < 5%)”; in the experiment with TK-10, “– (GI% < 5%)”; in the experiment with IGROV1, “– (GI% < 5%)”. In addition, the GI% result in the experiment with SNB-75, in the experiment with NCI-H322M, in the experiment with HOP-92, in the experiment on NCI-H460, in the experiment on OVCAR-4 and in the experiment on SNB-19 was “– (GI% < 5%)” in each case. Further, in the experiment on U251, the GI% result is “– (GI% < 5%)”.

In the case of `COc1ccc(-c2nc3cc(Cl)c(Cl)cc3n2CC(=O)NN=Cc2cccc(OC)c2)cc1` [Compound 10c, 2-(5,6-Dichloro-2-(4-methoxyphenyl)-1H-benzo[d]imidazol-1-yl)-N'-(3-methoxybenzylidene)acetohydrazide], the inhibition at 10 µM in the experiment with K-562 came out at 46.5%; in the experiment with COLO 205 it was 8.17%; with TK-10, 5.88%; in the experiment on HOP-92, 20.6%; in the experiment on NCI-H460, 23.7%; in the experiment with OVCAR-4, 42.1%. In addition, the inhibition at 10 µM in the experiment with SNB-19 is 32.4%; in the experiment with U251, 26.6%.
